Measured values as given in patent US20230096028A1, “BICYCLIC HETEROCYCLYL COMPOUNDS AND USES THEREOF” (Revolution Medicines, Inc., priority 2019, published 2023).

Experiments:
[1] = system: PC-9 cells (EGFR Ex19Del); experiment: Potency Assay: pERK (SOS1 pERK IC50 Assay, AlphaLISA SureFire Ultra p-ERK1/2); format: cell-based; conditions: Homo sapiens; PC-9 cells (EGFR Ex19Del), 1 hour incubation, AlphaLISA p-ERK1/2; read-out: SOS1 pERK IC50
Procedure, shortened: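 Cellular pERK1/2 by AlphaLISA SureFire Ultra after 1 h compound exposure (37° C., highest concentration 10 μM, 3-fold steps, duplicates) of EGFR Ex19Del PC-9 cells seeded the day before. A 4-parameter fit of signal versus log concentration gives IC50.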

[2] = molecular target: T1, SOS1 catalytic domain (residues 564-1049) (Homo sapiens, UniProt Q07889); experiment: Potency Assay: binding affinity to SOS1 using Surface Plasmon Resonance (SPR); design: SOS1 catalytic domain (residues 564-1049) immobilized on a sensor chip; conditions: immobilized SOS1 catalytic domain (residues 564-1049), read-out: SOS1 SPR Equilibrium Kd
T1 sequence (Q07889 564-1049): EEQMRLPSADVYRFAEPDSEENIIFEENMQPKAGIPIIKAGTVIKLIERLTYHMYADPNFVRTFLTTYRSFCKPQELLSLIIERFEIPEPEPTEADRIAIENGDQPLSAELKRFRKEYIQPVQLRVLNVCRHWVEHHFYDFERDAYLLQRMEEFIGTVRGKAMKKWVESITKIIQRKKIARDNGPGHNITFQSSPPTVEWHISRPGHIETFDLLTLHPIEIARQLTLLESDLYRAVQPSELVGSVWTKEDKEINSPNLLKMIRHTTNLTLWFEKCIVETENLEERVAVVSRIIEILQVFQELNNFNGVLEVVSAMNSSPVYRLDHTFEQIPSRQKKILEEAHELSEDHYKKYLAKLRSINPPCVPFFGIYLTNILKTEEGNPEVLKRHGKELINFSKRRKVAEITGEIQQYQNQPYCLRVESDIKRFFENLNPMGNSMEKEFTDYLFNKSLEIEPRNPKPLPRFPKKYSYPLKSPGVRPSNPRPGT
Procedure, shortened: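 Kd was obtained by plotting binding response, taken just before association ended, versus compound concentration on a Biacore 8K. Compounds flowed at 50 μL/min over streptavidin-captured avi-SOS1 catalytic domain (~6000 RU), followed by buffer dissociation; HEPES 0.01 M/NaCl 0.15 M/0.05% P20 buffer, double-referenced.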

[3] = molecular target: T1, SOS1 catalytic domain (residues 564-1049); experiment: Mode of Action Assay: inhibition of SOS1 nucleotide exchange activity (SOS1 TR-FRET IC50 Assay)
Protocol: The purpose of this assay was to characterize the inhibitory activity of compounds on SOS1 nucleotide exchange of KRAS. Data was reported as IC50 values based on the TR-FRET signal.
Note—the following protocol describes a procedure for monitoring the inhibition of SOS1 nucleotide exchange activity of wild-type KRAS in response to a compound of the invention.
The SOS1/compound mixture was incubated at room temperature with constant mixing on an orbital shaker for 20 minutes to allow the reaction to reach equilibrium. […] This mixture was prepared immediately before addition to the SOS1/compound mixture to prevent intrinsic nucleotide exchange. Then 5 μL of the pre-incubated SOS1/compound mixture and 7.5 μL of the KRAS mixture were added sequentially in a 384-well low volume black round bottom plate and incubated at room temperature with constant shaking for 30 minutes. Time-resolved fluorescence was measured on a PerkinElmer Envision plate reader.
Three replicates were performed for each compound. Data were normalized by the following: (Positive control−Sample signal)/(Positive control−negative control)*100. The data were fit using a four-parameter logistic fit.

Structure (SMILES)	IC50 [1] [nM]	Kd [2] [nM]	IC50 [3] [nM]
C[C@@H](Nc1nc(Cl)nc2c1CN(C(=O)C1CCNCC1)C2)c1cc(N)cc(C(F)(F)F)c1 [Example 270]	> 1000	< 400	< 1000
C[C@@H](Nc1nc(Cl)nc2c1C[C@H](N1CCOCC1)CC2)c1cc(N)cc(C(F)(F)F)c1 (single isomer, unassigned) [Example 169]	< 1000	< 400	< 1000
COc1ccc(S(=O)(=O)N2CCc3nc(Cl)nc(N[C@H](C)c4cc(N)cc(C(F)(F)F)c4)c3C2)cc1 [Example 454]	< 1000	< 400	< 1000
C[C@@H](Nc1nc(Cl)nc2c1C[C@@H](N1CCOCC1)CC2)c1cc(N)cc(C(F)(F)F)c1 (single isomer, unassigned) [Example 170]	< 1000	< 400	< 1000
C[C@@H](Nc1nc(Cl)nc2c1CN(S(=O)(=O)N1CCOCC1)CC2)c1cccc(C(F)(F)F)c1 [Example 185]	> 1000	> 400	< 1000
COC1(C(=O)N2Cc3nc(C(N)=O)nc(N[C@H](C)c4cccc(C(F)F)c4F)c3C2)CCOCC1 [Example 510, 4-{[(1R)-1-[3-(difluoromethyl)-2-fluorophenyl]ethyl]-amino}-6-(4-methoxyoxane-4-carbonyl)-5H,6H,7H-pyrrolo[3,4-d]pyrimidine-2-carboxamide]	> 1000	< 400	< 1000
C[C@@H](Nc1nc(Cl)nc2c1CN(S(=O)(=O)C1CNC1)CC2)c1cc(N)cc(C(F)(F)F)c1 [Example 451]	< 1000	< 400	< 1000
C[C@@H]1CN(C(=O)N2Cc3nc(Cl)nc(N[C@H](C)c4cc(N)cc(C(F)(F)F)c4)c3C2)C[C@H](C)N1 [Example 146]	< 1000	< 400	< 1000
C[C@@H](Nc1nc(Cl)nc2c1CN(C(=O)N1CCNc3ncncc31)C2)c1cc(N)cc(C(F)(F)F)c1 [Example 354]	< 1000	< 400	< 1000
C[C@@H](Nc1nc(Cl)nc2c1CN(C(=O)N1C[C@H]3CNC[C@H]3C1)C2)c1cccc(C(F)(F)F)c1 [Example 380]	> 1000	< 400	< 1000
C[C@@H](Nc1nc(Cl)nc2c1CC(N1CC3(COC3)C1)CC2)c1cccc(C(F)(F)CO)c1 (stereo partly drawn) [Example 438]	< 1000	< 400	< 1000
C[C@@H](Nc1nc(Cl)nc2c1CN(C(=O)N1CCN(C)CC(F)(F)C1)C2)c1cccc(C(F)F)c1F [Example 419]	< 1000	< 400	< 1000
C[C@@H](Nc1nc(Cl)nc2c1CN(C(=O)N1CCN(C)CC1)C2)c1cccc(C(F)(F)CO)c1 [Example 355]	> 1000	< 400	< 1000
C[C@@H](Nc1nc(Cl)nc2c1CN(C(=O)C1(C)CN(C3COC3)C1)C2)c1cccc(C(F)F)c1F [Example 335]	< 1000	< 400	< 1000
C[C@@H](Nc1nc(Cl)nc2c1CN(C(=O)N1C[C@@H]3C[C@H]1CN3C)C2)c1cccc(C(F)F)c1F [Example 412]	< 1000	< 400	< 1000
C[C@@H](Nc1nc(Cl)nc2c1CN(C(=O)N1CCNc3ncccc31)C2)c1cccc(C(F)(F)F)c1 [Example 370]	< 1000	< 400	< 1000
CC(Nc1nc(Cl)nc2c1CN(C(=O)N1CCOCC1)C2)c1cccc(C(F)(F)CO)c1 (stereo not drawn) [Example 171, [2-chloro-4-[1-[3-(1,1-difluoro-2-hydroxy-ethyl)phenyl]ethylamino]-5,7-dihydropyrrolo[3,4-d]pyrimidin-6-yl]-morpholino-methanone]	< 1000	< 400	< 1000
C[C@@H]1CN(C(=O)N2Cc3nc(Cl)nc(N[C@H](C)c4cccc(C(F)F)c4F)c3C2)C[C@H](C)N1C [Example 397]	< 1000	< 400	< 1000

Structure (SMILES)	IC50 [1] [nM]	Kd [2] [nM]	IC50 [3] [nM]
COCC1(S(=O)(=O)N2CCc3nc(Cl)nc(N[C@H](C)c4cc(N)cc(C(F)(F)F)c4)c3C2)CCC1 [Example 448, N-[(1R)-1-[3-amino-5-(trifluoromethyl)phenyl]ethyl]-2-chloro-6-{[1-(methoxymethyl)cyclobutyl]sulfonyl}-5H,6H,7H,8H-pyrido[4,3-d]pyrimidin-4-amine]	> 1000	< 400	< 1000
C[C@@H](Nc1nc(Cl)nc2c1CC(N1CC3(COC3)C1)CC2)c1cc(N)cc(C(F)(F)F)c1 (stereo partly drawn) [Example 433]	< 1000	< 400	< 1000
C[C@@H](Nc1nc(Cl)nc2c1CN(C(=O)N1CC3CCC1CN3)C2)c1cccc(C(F)F)c1F (stereo partly drawn) [Example 384]	< 1000	< 400	< 1000
C[C@@H](Nc1nc(Cl)nc2c1CN(C(=O)N1CCNCC(F)C1)C2)c1cccc(C(F)F)c1F (stereo partly drawn) [Example 404]	< 1000	< 400	< 1000
C[C@@H](Nc1nc(Cl)nc2c1CN(C(=O)C1CCNCC1F)C2)c1cccc(C(F)F)c1F (stereo partly drawn) [Example 305]	> 1000	< 400	< 1000
COC1CN([C@H]2CCc3ncnc(N[C@H](C)c4cccc(C(F)F)c4F)c3C2)C1 [Example 444]	> 1000	< 400	< 1000
Cc1nc2c(c(N[C@H](C)c3cc(N)cc(C(F)(F)F)c3)n1)CN(S(=O)(=O)C1CCOCC1)C2 [Example 47, N-[(1R)-1-[3-amino-5-(trifluoromethyl)phenyl]ethyl]-2-methyl-6-tetrahydropyran-4-ylsulfonyl-5,7-dihydropyrrolo[3,4-d]pyrimidin-4-amine]	< 1000	< 400	< 1000
C[C@@H](Nc1nc(Cl)nc2c1CN(C1CCOCC1)C2=O)c1cc(N)cc(C(F)(F)F)c1 [Example 30, 4-[[(1R)-1-[3-amino-5-(trifluoromethyl)phenyl]ethyl]amino]-2-chloro-6-tetrahydropyran-4-yl-5H-pyrrolo[3,4-d]pyrimidin-7-one]	> 1000	< 400	< 1000
C[C@@H](Nc1nc(Cl)nc2c1CN(C(=O)N1CCN(C)C(c3ccncc3)C1)C2)c1cccc(C(F)F)c1F (stereo partly drawn) [Example 417]	< 1000	< 400	< 1000
C[C@@H](Nc1nc(Cl)nc2c1CN(C(=O)N1CCNCC1)C2)c1cccc(C(F)(F)F)c1 [Example 364]	< 1000	< 400	< 1000
C[C@@H](Nc1nc(Cl)nc2c1CN(C(=O)N1CCNC(=O)C1)C2)c1cccc(C(F)(F)F)c1 [Example 376]	< 1000	< 400	< 1000
C[C@@H](Nc1nc(Cl)nc2c1CN(C(=O)C1(C)COC1)C2)c1cc(N)cc(C(F)(F)F)c1 [Example 261]	< 1000	< 400	< 1000
C[C@@H](Nc1nc(Cl)nc2c1CN(C(=O)c1cnc3[nH]ccc3c1)C2)c1cc(N)cc(C(F)(F)F)c1 [Example 91]	< 1000	> 400	> 1000
C[C@@H](Nc1nc(I)nc2c1CN(C(=O)N1CCOCC1)C2)c1cc(N)cc(C(F)(F)F)c1 [Example 134, N-[(1R)-1-[3-amino-5-(trifluoromethyl)phenyl]ethyl]-2-iodo-6-(morpholine-4-carbonyl)-5H,6H,7H-pyrrolo[3,4-d]pyrimidin-4-amine]	< 1000	< 400	< 1000
COC1(C(=O)N2Cc3nc(Cl)nc(N[C@H](C)c4cc(N)cc(C(F)(F)F)c4)c3C2)CCOCC1 [Example 93]	< 1000	< 400	< 1000
C[C@@H](Nc1nc(Cl)nc2c1CN(C(=O)N1C3COCC1COC3)C2)c1cccc(C(F)F)c1F [Example 409]	< 1000	< 400	< 1000
C[C@@H](Nc1nc(Cl)nc2c1CN(C(=O)[C@H]1C[C@@H](O)C1)C2)c1cc(N)cc(C(F)(F)F)c1 [Example 260]	< 1000	< 400	< 1000
COC(=O)N1C[C@@H]2COC[C@]2(C(=O)N2CCc3nc(Cl)nc(N[C@H](C)c4cc(N)cc(C(F)(F)F)c4)c3C2)C1 [Example 221]	> 1000	> 400	< 1000
